{"source": "patent US20080108067A1", "about": "“Cloning of the retinoic acid inducible gene-1 promoter and uses thereof” (priority 2004, published 2008)", "test_system": "human RIG-1 promoter (RIG-PROM-LUC reporter)", "experiment": "RIG-PROM-LUC luciferase reporter activity in response to inducers in transfected human cells", "assay_type": "cell-based"}
{"compound": "CC1=C(/C=C/C(C)=C/C=C/C(C)=C/C(=O)O)C(C)(C)CCC1", "note": "[retinoic acid, all Trans-retinoic acid]", "values": [{"measurement": "activation of promoter activity (RIG-PROM-LUC)", "setting": "FM516 and HeLa cells, IFN-β induction greater than PolyIC:PolyIC and least with retinoic acid, FIG. 2", "result": "robust activation"}, {"measurement": "response of reporter compared to untreated controls", "setting": "depending on the cell line (FM516, T47D, HeLa, PHFA), inducer 6 h then overnight incubation", "result": "around 1.5 fold"}]}
